29 molecules from patent US20030232986A1, “Inhibitors of caspases” (Vertex Pharmaceuticals Incorporated, priority 1998, published 2003) can be followed below.

Where a SMILES comes first, the peptide text is derived from it. The star is where a group is joined. Isovaleryl = CC(C)CC(=O)*; 4Abz = Nc1ccc(C(=O)O)cc1

Assay [1] concerns Human Peripheral Blood Mononuclear Cells (PBMC), mature IL-1β. The assay can be described thus: PBMC cell assay: IL-1β assay with human peripheral blood mononuclear cells. In kind it is cell-based. The following applies: LPS-stimulated human PBMC, mature IL-1β in supernatant by ELISA. The method in brief: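 Donor PBMC (suspension at 6×10^6 cells/ml) or adherent-enriched monocytes were stimulated with 5 ng/ml LPS (final) alongside 5–6 compound dilutions bracketing the ICE Ki, at 0.1% DMSO final, for 16–18 hr at 37° C, 5% CO2. Mature IL-1β in supernatants was measured by ELISA; IC50 was calculated relative to LPS-only controls.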

The test system of assay [2] is Human whole blood, IL-1β production. The assay can be described thus: Whole blood assay for IL-1β production. In kind it is cell-based. The note with it: LPS-stimulated whole blood, IL-1β by ELISA. A digest of the protocol: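 LPS-stimulated (5.0 ng/ml final) human whole blood incubated with test compound in saline (or plasma/PBS-5% DMSO for hydrophobic compounds) at 30° C for 16-18 hr. Plasma IL-1β then measured by ELISA at 1:200 dilution, against no-LPS, no-inhibitor and vehicle controls.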

In assay [3] the target is T1, Caspase-1 (Homo sapiens, UniProt P29466).
T1 sequence (P29466 120-297 limits assumed): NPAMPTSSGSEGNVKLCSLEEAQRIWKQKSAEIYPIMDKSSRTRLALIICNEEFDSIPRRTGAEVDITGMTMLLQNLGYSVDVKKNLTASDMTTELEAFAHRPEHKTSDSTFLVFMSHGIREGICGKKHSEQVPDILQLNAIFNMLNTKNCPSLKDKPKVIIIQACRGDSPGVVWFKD
T1 sequence (P29466 317-404 limits assumed): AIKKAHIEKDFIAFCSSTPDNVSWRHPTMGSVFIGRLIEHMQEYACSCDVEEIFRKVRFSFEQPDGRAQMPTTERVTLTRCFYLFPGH
The assay can be described thus: Caspase-1 enzyme inhibition (Ki). In kind it is biochemical. The note with it: substrate Suc-YVAD-pNA 80 μM, 37° C., pH 7.5. A digest of the protocol: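 Ki obtained by fitting rate versus inhibitor concentration to the Morrison tight-binding equation for competitive inhibitors, with pNA release read at 405 nm at 37 °C. Substrate Suc-YVAD-pNA (80 μM final) added after 15 min enzyme–inhibitor preincubation in Tris pH 7.5 buffer with DTT and CHAPS.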

Broadly, the IC50 is the concentration that inhibits the measured activity by half. The low end stands for higher potency, the high end for lower potency. As usually defined, the Ki is the dissociation constant of the complex between target and ligand, obtained from inhibition or displacement. As to `C[C@H](NC(=O)c1ccc2c(c1)OCO2)C(=O)N1CCC[C@H]1C(=O)N[C@H](C=O)CC(=O)O` [Example 7q], the figures for the IC50 in assay [1] and in assay [2] were > 2000 nM and < 2500 nM, respectively. The molecule further registered a Ki in assay [3] of 10 to 1000 nM.

Consider `C[C@H](NC(=O)c1ccc(N(C)C)cc1)C(=O)N1CCC[C@H]1C(=O)N[C@H](C=O)CC(=O)O` [Example 7s], for which the IC50 in assay [1] was 500 to 1000 nM; in assay [2], 2500 to 7500 nM. In addition, the Ki in assay [3] was 10 to 1000 nM.

In the case of `Cc1cc(C(=O)N[C@@H](C)C(=O)N2CCC[C@H]2C(=O)N[C@H](C=O)CC(=O)O)ccc1N` [Example 7t], the IC50 in assay [1] was > 2000 nM; in assay [2] it was 2500 to 7500 nM. Further, the Ki in assay [3] was 10 to 1000 nM.

Consider `C[C@H](NC(=O)c1ccc(C(N)=O)cc1)C(=O)N1CCC[C@H]1C(=O)N[C@H](C=O)CC(=O)O` [Example 7u], for which the IC50 in assay [1] was > 2000 nM; in assay [2], 2500 to 7500 nM. This molecule had a Ki in assay [3] of 10 to 1000 nM.

With `CC(C)CC(=O)Nc1ccc(C(=O)N[C@@H](C)C(=O)N2CCC[C@H]2C(=O)N[C@H](C=O)CC(=O)O)cc1` [Example 7v] ({Isovaleryl-4Abz}-Ala-Pro-Asp-aldehyde), the IC50 in assay [1] is > 2000 nM; in assay [2] it was < 2500 nM. The inhibition constant (Ki) in assay [3] is 10 to 1000 nM.

Take `Cc1cc(C(=O)N[C@@H](C)C(=O)N2CCC[C@H]2C(=O)N[C@H](C=O)CC(=O)O)cc(Cl)c1N` [Example 7w]: the IC50 is 1000 to 2000 nM in assay [1] and < 2500 nM in assay [2]. Also, the inhibition constant Ki in assay [3] was < 10 nM.

Turning to `C[C@H](NC(=O)c1ccc(NS(C)(=O)=O)cc1)C(=O)N1CCC[C@H]1C(=O)N[C@H](C=O)CC(=O)O` [Example 7x], the values for the IC50 in assay [1] and in assay [2] were > 2000 nM and > 7500 nM, respectively. Also, the inhibition constant Ki in assay [3] is 10 to 1000 nM.

For the molecule `C[C@H](NC(=O)c1ccc(N)c(OC(F)(F)F)c1)C(=O)N1CCC[C@H]1C(=O)N[C@H](C=O)CC(=O)O` [Example 7y], the values for the concentration for half-maximal inhibition (IC50) in assay [1] and in assay [2] were > 2000 nM and > 7500 nM, respectively. Moreover, the Ki in assay [3] was in the range of 10 to 1000 nM.

`CC(=O)Nc1c(Cl)cc(C(=O)N[C@@H](C)C(=O)N2CCC[C@H]2C(=O)N[C@H](C=O)CC(=O)O)cc1Cl` [Example 7z]: the values for the IC50 in assay [1] and in assay [2] were 1000 to 2000 nM and < 2500 nM, respectively. The Ki in assay [3] was in the range of 10 to 1000 nM.

As for `COc1ccc(C(=O)N[C@H](C(=O)N2C[C@H](NC(C)=O)C[C@H]2C(=O)N[C@H](C=O)CC(=O)O)C(C)C)cc1` [Example 9a], the IC50 in assay [1] was in the range of 500 to 1000 nM; in assay [2] it was 2500 to 7500 nM. In assay [3], this molecule returned a Ki of 10 to 1000 nM.

On to `COc1ccc(C(=O)N[C@H](C(=O)N2C[C@H](NC(=O)NC(C)C)C[C@H]2C(=O)N[C@H](C=O)CC(=O)O)C(C)C)cc1` [Example 9b], for which the figures for the IC50 in assay [1] and in assay [2] were 500 to 1000 nM and 2500 to 7500 nM, respectively. Besides, the Ki in assay [3] is < 10 nM.

Regarding `CC(C)NC(=O)N[C@@H]1C[C@@H](C(=O)N[C@H](C=O)CC(=O)O)N(C(=O)[C@@H](NC(=O)c2nccc3ccccc23)C(C)C)C1` [Example 9c], the IC50 was < 500 nM in assay [1] and < 2500 nM in assay [2]. Further, in assay [3], the Ki was < 10 nM.

For `CC(C)[C@H](NC(=O)c1nccc2ccccc12)C(=O)N1C[C@H](NS(C)(=O)=O)C[C@H]1C(=O)N[C@H](C=O)CC(=O)O` [Example 9d], the values for the IC50 in assay [1] and in assay [2] were 500 to 1000 nM and < 2500 nM, respectively. Moreover, in assay [3], the inhibitory constant (Ki) is < 10 nM.

For `COC(=O)N[C@@H]1C[C@@H](C(=O)N[C@H](C=O)CC(=O)O)N(C(=O)[C@@H](NC(=O)c2ccc(OC)cc2)C(C)C)C1` [Example 9e], the IC50 in assay [1] was in the range of 1000 to 2000 nM; in assay [2], 2500 to 7500 nM. Besides, in assay [3], the inhibition constant (Ki) is < 10 nM.

As for `COC(=O)N[C@@H]1C[C@@H](C(=O)N[C@H](C=O)CC(=O)O)N(C(=O)[C@@H](NC(=O)c2nccc3ccccc23)C(C)C)C1` [Example 9f], the figures for the IC50 in assay [1] and in assay [2] were 500 to 1000 nM and < 2500 nM, respectively. Besides, the Ki in assay [3] was < 10 nM.

As for `CC(=O)N[C@@H]1C[C@@H](C(=O)N[C@H](C=O)CC(=O)O)N(C(=O)[C@@H](NC(=O)c2nccc3ccccc23)C(C)C)C1` [Example 9g], the results for the half-inhibitory concentration (IC50) in assay [1] and in assay [2] were 1000 to 2000 nM and 2500 to 7500 nM, respectively. The inhibitory constant (Ki) in assay [3] was < 10 nM.

On to `Cc1cc(C(=O)N[C@H](C(=O)N2CCNCC2C(=O)N[C@H](C=O)CC(=O)O)C(C)C)cc(C)c1O` (stereo partly drawn) [Example 15a], for which the IC50 is > 2000 nM in assay [1] and 2500 to 7500 nM in assay [2]. For the same molecule, in assay [3], the Ki was < 10 nM.

For `CC(C)[C@H](NC(=O)c1nccc2ccccc12)C(=O)N1CCNCC1C(=O)N[C@H](C=O)CC(=O)O` (stereo partly drawn) [Example 15b], the IC50 in assay [1] was in the range of 1000 to 2000 nM; in assay [2], 2500 to 7500 nM. In addition, the inhibitory constant (Ki) in assay [3] is < 10 nM.

Regarding `COc1ccc(C(=O)N[C@H](C(=O)N2CCNC[C@H]2C(=O)N[C@H](C=O)CC(=O)O)C(C)C)cc1` [Example 15c], the IC50 in assay [1] was 500 to 1000 nM; in assay [2], < 2500 nM. In addition, the Ki in assay [3] is < 10 nM.

As for `C[C@H](NC(=O)c1ccc(N)c(Cl)c1)C(=O)N1CCNC[C@H]1C(=O)N[C@H](C=O)CC(=O)O` [Example 16b], the values for the IC50 in assay [1] and in assay [2] were 1000 to 2000 nM and < 2500 nM, respectively. Moreover, the Ki in assay [3] was < 10 nM.

Turning to `COCC(=O)N1CCN(C(=O)[C@H](C)NC(=O)c2nccc3ccccc23)[C@H](C(=O)N[C@H](C=O)CC(=O)O)C1` [Example 18a], the IC50 in assay [1] was 500 to 1000 nM; in assay [2] it was < 2500 nM. In assay [3], this molecule displayed an inhibition constant Ki of 10 to 1000 nM.

Turning to `CC(C)S(=O)(=O)N1CCN(C(=O)[C@H](C)NC(=O)c2nccc3ccccc23)[C@H](C(=O)N[C@H](C=O)CC(=O)O)C1` [Example 18b], the IC50 in assay [1] was 500 to 1000 nM; in assay [2], < 2500 nM. For the same molecule, the Ki in assay [3] was < 10 nM.

Consider `C[C@H](NC(=O)c1nccc2ccccc12)C(=O)N1CCN(C(N)=O)C[C@H]1C(=O)N[C@H](C=O)CC(=O)O` [Example 18c], for which the 50% inhibitory concentration (IC50) in assay [1] was 500 to 1000 nM; in assay [2] it was < 2500 nM. In assay [3], this molecule returned a Ki of 10 to 1000 nM.

As to `CC(=O)N1CCN(C(=O)[C@H](C)NC(=O)c2nccc3ccccc23)[C@H](C(=O)N[C@H](C=O)CC(=O)O)C1` [Example 18d], the IC50 in assay [1] is 500 to 1000 nM; in assay [2], < 2500 nM. The molecule also had a Ki in assay [3] of 10 to 1000 nM.

As for `CC(C)NC(=O)N1CCN(C(=O)[C@H](C)NC(=O)c2nccc3ccccc23)[C@H](C(=O)N[C@H](C=O)CC(=O)O)C1` [Example 18e], the half-inhibitory concentration (IC50) is 1000 to 2000 nM in assay [1] and < 2500 nM in assay [2]. In addition, in assay [3], the Ki is < 10 nM.

In the case of `CC(C)(C)[C@H](NC(=O)c1nccc2ccccc12)C(=O)N1CCC[C@H]1C(=O)N[C@H](C=O)CC(=O)O` [Example 20a], the IC50 was 500 to 1000 nM in assay [1] and < 2500 nM in assay [2]. In addition, in assay [3], the Ki was < 10 nM.

With `CC(C)(C)[C@H](NC(=O)c1cccc2ccccc12)C(=O)N1CCC[C@H]1C(=O)N[C@H](C=O)CC(=O)O` [Example 20b], the results for the IC50 in assay [1] and in assay [2] were 500 to 1000 nM and > 7500 nM, respectively. Besides, the Ki in assay [3] was < 10 nM.

Consider `CCC(C)[C@H](NC(=O)c1nccc2ccccc12)C(=O)N1CCC[C@H]1C(=O)N[C@H](C=O)CC(=O)O` (stereo partly drawn) [Example 20c], for which the half-maximal inhibitory concentration (IC50) was 1000 to 2000 nM in assay [1] and 2500 to 7500 nM in assay [2]. Further, in assay [3], the Ki was < 10 nM.

Consider `C[C@@H](O)[C@H](NC(=O)c1nccc2ccccc12)C(=O)N1CCC[C@H]1C(=O)N[C@H](C=O)CC(=O)O` [Example 20d], for which the IC50 in assay [1] was > 2000 nM; in assay [2] it was 2500 to 7500 nM. The molecule further yielded an inhibition constant Ki in assay [3] of 10 to 1000 nM.
